Counter-ions that a name gives are not always drawn.
Each compound was assayed on Plasmodium falciparum (assay: GSK_TCMDC: Inhibition of Plasmodium falciparum 3D7 in whole erythrocytes, using parasite LDH activity as an index of growth.). Conditions: Plasmodium falciparum, 3D7.
Assay type: functional, organism-based

Row | SMILES | XC50
1 | CCc1cn2c3c(cc(C(=O)N[C@@H](Cc4ccccc4)[C@H](O)CNCc4ccccc4C)cc13)N(C)S(=O)(=O)CC2 | 271 nM
2 | NC(=O)c1cccc(C(=O)Nc2ccc(-c3cccc(-c4nc5cc(C(F)(F)F)ccc5[nH]4)c3)cc2)c1 | 350 nM
3 | COc1nc2c(CCN3CCC(NCc4ccc5c(n4)NC(=O)CO5)CC3)c(Cl)cnc2cc1F | 418 nM
4 | COc1ccc2nccc(C(=O)NC3CCC(CCN4CCc5cc(C#N)ccc5C4)CC3)c2c1 (stereo unspecified) | 1160 nM
5 | O=C(NC1CC1)c1ccc(N2CCC(Cc3ccccc3)CC2)c([N+](=O)[O-])c1 | 614 nM
6 | CCCCCCCc1c(C)nc2c(OC)cccc2c1O | 921 nM
7 | O=C(NCCCCN1CCC(c2ccc3c(c2OCC2CC2)CCCC3)CC1)c1ccc(NC(=O)c2ccc(Cl)cc2)cc1 | 680 nM
8 | CCOc1ccc2ccccc2c1CNCCCCCCNCc1c(OCC)ccc2ccccc12 | 576 nM
9 | NCCNc1ccnc2cc(Cl)ccc12 | 125 nM
10 | COc1ccc(CC(=O)NC(CCN2CCC3(CCc4ccccc43)CC2)c2ccc(Cl)c(Cl)c2)cc1 (stereo unspecified) | 525 nM
11 | CCCc1cc(NC2CCN(C)CC2)nc(Nc2ccc(F)cc2)n1 | 801 nM
12 | COc1ccc(-c2ccc(NC(=O)c3ccc(C#N)cc3)cc2)cc1CN1CCNCC1 | 505 nM
13 | c1ccc(CN2CCC(NCc3ccccc3-c3ccc(CNCc4ccc5c(c4)OCO5)cc3)CC2)cc1 | 326 nM
14 | CS(=O)(=O)CCNCc1cccc(-c2ccc3c(Nc4cc(O)c(Cl)cc4F)ccnc3c2)c1 | 254 nM
15 | CCc1c(CCNCC/C=C/CCNCCc2ccc(OC)c(OC)c2CC)ccc(OC)c1OC | 771 nM
16 | Cc1nnsc1C(=O)Nc1ccc(-c2cccc(-c3nc4cc(F)ccc4[nH]3)c2)cc1 | 766 nM
17 | c1ccc2nc(NCCCCCCCCNc3ccc4ccccc4n3)ccc2c1 | 272 nM
18 | CCCCc1ccc(-c2ccc(-c3c(C)[nH]c(C)c(Br)c3=O)cn2)cc1 | 57.8 nM
19 | CNCCCNc1ccnc2cc(Cl)ccc12 | 62.4 nM
20 | CO/C=C(/C(=O)OC)c1ccccc1Oc1cc(Oc2ccccc2C#N)ncn1 [AZOXYSTROBIN] | 40.5 nM
21 | COc1cccc2cc(C(=O)N[C@@H](CC(C)C)C(=O)NC(/C=N/NC(=O)c3ccccc3)CCc3ccccc3)oc12 (stereo partly specified) | 577 nM
22 | COc1ccc2nccc([C@@H](O)CN3CCC(NC(=O)[C@@H]4Cc5ccccc5CN4C(=O)OC(C)(C)C)CC3)c2c1 | 892 nM
23 | Cc1noc(C)c1-c1ccc2c(Nc3nccc4ccccc34)c(C(N)=O)cnc2c1 | 895 nM
24 | CCN(c1cc(C)nc(Nc2ccc(Cl)cc2)n1)[C@H]1CCN(Cc2ccccc2)C1 | 855 nM

Row | SMILES | XC50
25 | CCn1ccc2c(N3CCCC3=O)cc(C(=O)N[C@@H](Cc3ccccc3)[C@H](O)CNC3CCCCC3)cc21 | 119 nM
26 | O=C(N[C@@H](CC1CCCCC1)C(=O)NC1CCCCCC1)c1ccc(O)c(-c2ccc(Cl)c(Cl)c2)c1 | 102 nM
27 | CN1CCC=C(C(=O)NCC(C)(C)c2nc(-c3ccc(Cl)c(O)c3)c(-c3ccncc3)[nH]2)C1 | 1000 nM
28 | CC1(C)NC(N)=NC(=N)N1OCCCOc1ccccc1Cl | 3.2 nM
29 | CCN(CC)CCN(Cc1ccc(-c2ccc(C(F)(F)F)cc2)cc1)C(=O)Cn1c(CCc2cccc(C#N)c2)nc(=O)c2ccccc21 | 768 nM
30 | COc1ccc(S(=O)(=O)N(CC(=O)NN=C(C)c2cccs2)c2cc(C)cc(C)c2)cc1OC | 141 nM
31 | CN/C(=N\O)NCCN(C)C | 1180 nM
32 | O=C1OC(c2ccccc2)(c2ccccn2)CN1C1CCN(Cc2cccn2-c2ccc(Cl)cc2)CC1 (stereo unspecified) | 475 nM
33 | FC(F)(F)c1ccc2[nH]c(-c3cccc(-c4cccc(CNCCc5ccncc5)c4)c3)nc2c1 | 141 nM
34 | FC(F)(F)Oc1ccc(-c2cnc3ccc(NCc4ccncc4)nn23)cc1 | 866 nM
35 | O=[N+]([O-])c1ccc(Oc2ccccc2CNCC2CCN(CC3CCCCC3)CC2)cc1 | 903 nM
36 | O=C(/C=C/C=C/c1ccc(Cl)c(Cl)c1)NCCCCCN1CCCC2CCCCC21 (stereo unspecified) | 954 nM
37 | COc1ccc(OC)c(CNCC(O)c2cc(C(F)(F)F)cc(C(F)(F)F)c2)c1 (stereo unspecified) | 443 nM
38 | Cc1cccc(NC(=O)NC2CCN(CCCCCNC(=O)/C=C/c3ccc(Cl)c(Cl)c3)CC2)c1 | 753 nM
39 | CCCSc1nc2c(c(=O)n1CCc1ccccc1)C1(CCCC1)Cc1ccccc1-2 | 702 nM
40 | CCN(CCN(C)C)Cc1ccc(-c2ccc(NS(=O)(=O)c3cccc4cccnc34)cc2)cc1 | 931 nM
41 | O=C(Nc1ccc(C(F)(F)F)cc1)c1cccc(S(=O)(=O)NC2CCN(CC3CCCCC3)C2)c1 (stereo unspecified) | 690 nM
42 | COc1ccc(C2(CNCC(O)c3cccc([N+](=O)[O-])c3)CCCC2)cc1OC (stereo unspecified) | 891 nM
43 | COC(=O)c1ccc(CC(C)NCC(O)c2ccc(C(O)CNC(C)Cc3ccc(C(=O)OC)cc3)cc2)cc1 (stereo unspecified) | 1030 nM
44 | Cc1cc(NC(=O)Nc2cccc(Cl)c2Cl)c2ccccc2n1 | 744 nM
45 | COc1ccc2ncc(C#N)c(CCN3CCC(NCc4ccc5c(c4)NC(=O)CO5)CC3)c2c1 | 588 nM
46 | COc1ccc(-c2cc(-c3nc4cc(C(=O)N5CCOCC5)ccc4[nH]3)c(=O)n(C)c2)cc1OC | 863 nM
47 | O=C(NCCCc1ccccc1)c1csc(C2CCCN(C(=O)c3ccc(O)c(-c4ccccc4)c3)C2)n1 (stereo unspecified) | 913 nM
48 | O=C(/C=C/c1ccc(Cl)c(Cl)c1)NCCCCCN1CCC(NC(=O)Nc2ccc(Br)cc2)CC1 | 567 nM

Row | SMILES | XC50
49 | Cc1ccc2[nH]c(Nc3ccc(Nc4nc5cc(C)ccc5[nH]4)c(C)c3)nc2c1 | 769 nM
50 | CC(C)NCc1cccc(-c2ccc(NS(=O)(=O)c3cccc4cccnc34)cc2)c1 | 1080 nM
51 | COCc1nc(N)nc(N)c1-c1ccc(Cl)c(Cl)c1 | 1020 nM
52 | Cc1cc(O)c(-c2ccc(Oc3ccc(F)cc3)cc2)c(C)n1 | 972 nM
53 | COc1cc(CNC2Cc3ccccc3C2)ccc1Oc1ccc2nc[nH]c2c1 | 949 nM
54 | COc1ccc(CCNC(=O)c2cc(C)ccc2O)cc1-c1ccc(C(C)(C)C)cc1 | 482 nM
55 | Cc1ccc(-c2nnc(Nc3ccc(C(=O)N4CCCCC4)cc3)c3ccccc23)cc1S(=O)(=O)NCC1CCCO1 (stereo unspecified) | 709 nM
56 | Oc1ccc(Nc2nc(NCC3CCCO3)c3ccccc3n2)cc1 (stereo unspecified) | 806 nM
57 | O=C(/C=C/c1ccc(Cl)c(Cl)c1)NCCCCCN1CCC(NC(=O)c2cccc(Cl)c2)CC1 | 687 nM
58 | CC(C)(CNCc1cc(Cl)cc(Cl)c1)c1nc(-c2ccnc(N)n2)c(-c2ccc(Cl)c(O)c2)[nH]1 | 1010 nM
59 | COc1ccc2nccc(N3CCC(CCNCc4ccc5c(n4)NC(=O)CO5)CC3)c2n1 | 998 nM
60 | CC(=O)N(Cc1ccc(-c2ccc(CNCCc3ccccc3)cc2)cc1)C1CCN(Cc2ccccc2)CC1 | 939 nM
61 | COc1ccc2ncc(Cl)c(CCN3C[C@H](CNCc4ccc5c(n4)NC(=O)CS5)[C@H](O)C3)c2n1 | 1000 nM
62 | COc1ccc(N2CCN(CCCCNC(=O)c3ccc(NC(=O)c4ccc(OC(F)(F)F)cc4)cc3)CC2)c(OC)c1 | 578 nM
63 | O=C(C=Cc1ccc(Cl)c(Cl)c1)NCCCCCN1CCC(CCNC(=O)C(c2ccccc2)c2ccccc2)CC1 | 1010 nM
64 | Cn1cc(CN2CCC(CCOC(c3ccccc3)c3ccccc3)CC2)cn1 | 259 nM
65 | CCNc1cc(C(=O)N[C@@H](Cc2cccc(Cl)c2)[C@H](O)CNC(C)CCCC(C)C)cc(N2CCCCS2(=O)=O)c1 (stereo partly specified) | 285 nM
66 | COc1cc2nc(N3CCC(CNC(=O)c4ccc(-c5ccc(O)cc5)cc4)CC3)nc(N)c2cc1OC | 175 nM
67 | NC(=O)c1cnc2cc(-c3ccncc3)cc(Nc3ccc(NC(=O)C4CCCCC4)cc3)c2c1 | 232 nM
68 | O=C(/C=C/c1cccc(C(F)(F)F)c1)NCCCCCN1CCC(c2c[nH]c3ccccc23)CC1 | 836 nM
69 | N#Cc1cc(C(=O)c2cc(Cl)ccc2O)cn(-c2cc(Cl)cc(Cl)c2)c1=O | 849 nM
70 | C[C@H](NC(=O)C1CCCC1)C(=O)Nc1ccc(-c2ccc(-c3nc4cc(C(F)(F)F)ccc4[nH]3)cc2)cc1 | 272 nM
71 | CCCCCC(C)C(C)c1cc(OC(N)=O)c2c(c1)OC(C)(C)C=C2c1ccncc1 (stereo unspecified) | 895 nM
72 | OC1CCC(Nc2ccc3ncc(-c4ccc5ccccc5c4)n3n2)CC1 (stereo unspecified) | 978 nM

Row | SMILES | XC50
73 | COc1cccc(C2CCN(CCCCNC(=O)c3ccc(NC(=O)c4ccc(Cl)cc4)cc3)CC2)c1 | 965 nM
74 | CCCNCc1ccc(-c2ccc(CNC3Cc4ccccc4C3)cc2)nc1 | 848 nM
75 | N=C(N)c1ccc(OCCCCCOc2ccc(C(=N)N)cc2)cc1 [PENTAMIDINE HYDROCHLORIDE] | 140 nM
76 | Cc1nnsc1C(=O)Nc1cccc(-c2cccc(-c3nc4cc(C(F)(F)F)ccc4[nH]3)c2)c1 | 235 nM
77 | Oc1ccc2c(CNCCc3ccccc3)c(O)ccc2c1CNCCc1ccccc1 | 104 nM
78 | COc1ccc2nc(-c3cc(-c4ccc(NC(=O)CN5CCOCC5)cc4)cnc3N)[nH]c2c1 | 616 nM
79 | O=C(/C=C/c1ccc(Cl)c(Cl)c1)NCCCCCCN1CCN(C(=O)Nc2ccc(C(F)(F)F)cc2)CC1 | 397 nM
80 | Clc1ccc(CNc2nc(NCCc3c[nH]cn3)nc(N3CCCC4CCCCC43)n2)cc1 (stereo unspecified) | 591 nM
81 | CCCCOc1c(CNCCCCCCNCc2ccc3ccccc3c2OCCCC)ccc2ccccc12 | 869 nM
82 | N=C(N)c1ccc(Nc2nccc(Nc3nc(-c4ccccc4)cs3)n2)cc1 | 754 nM
83 | O=C(NCCCNc1ccc2ccccc2n1)c1cc2c(Cl)cc(Cl)cc2[nH]1 | 604 nM
84 | O=[N+]([O-])c1ccc(Oc2c(Cl)cc(S(=O)(=O)N3CCC(CN4CCC(c5c[nH]c6ccccc56)CC4)CC3)cc2Cl)c(Cl)c1 | 998 nM
85 | Cc1cc2ccccc2n1CC(=O)N1CC(C(=O)N2CCCCC2)Oc2ccccc21 (stereo unspecified) | 899 nM
86 | COc1ccc(CNc2nc(NCc3ccc(C(F)(F)F)cc3)c3cc(OC)c(OC)cc3n2)cc1OC | 210 nM
87 | O=C(Nc1ccc(Cl)cc1)c1ccc(CN2CCCN(Cc3cccc(O)c3)CC2)cc1 | 388 nM
88 | Cc1ccc(C2CC(=O)CC(c3ccccn3)C2[N+](=O)[O-])cc1 (stereo unspecified) | 859 nM
89 | COc1ccc(CCNCCCCCNCCc2ccc(Cl)cc2)cc1OC | 741 nM
90 | Cc1nc(C)c(-c2ccc(Cl)cc2)c(O)c1I | 674 nM
91 | CCN1CCN(c2cc(C)c3cc(NC(=O)c4ccc(N(CC)CC)cc4)ccc3n2)CC1 | 962 nM
92 | CCOc1ccc(-c2nonc2NC(=O)c2ccccc2)cc1OCC | 257 nM
93 | CCCC(CNCc1cccc(OC(F)(F)C(F)F)c1)CNc1cc(=O)c2ccccc2[nH]1 (stereo unspecified) | 595 nM
94 | NC(=O)c1ccsc1NC(=O)CNC(c1ccccc1)c1ccccc1 | 938 nM
95 | Cc1noc(C)c1-c1cccc(CNCc2cccc(-c3ccc(-c4nc5cccc(C)c5[nH]4)cc3)c2)c1 | 191 nM
96 | c1ccc(CC2=NCCN2)cc1 [TOLAZOLINE HYDROCHLORIDE] | 188 nM

— ChEMBL document CHEMBL1157539, “Thousands of chemical starting points for antimalarial lead identification” (Nature, 2010)
